Assay results reported in publication PMC5679212 (The Biochemical journal, 2014).

Experiments:
Format in all cases: binding
[1] = molecular target: ULK4 (unc-51 like kinase 4) (Homo sapiens, UniProt Q96C45); assay: thermal-shift assay
[2] = molecular target: T1, MLKL (mixed lineage kinase domain-like) (Homo sapiens, UniProt Q8NB16); assay: ITC and thermal-shift assay
T1 sequence (Q8NB16 190-471 limits assumed): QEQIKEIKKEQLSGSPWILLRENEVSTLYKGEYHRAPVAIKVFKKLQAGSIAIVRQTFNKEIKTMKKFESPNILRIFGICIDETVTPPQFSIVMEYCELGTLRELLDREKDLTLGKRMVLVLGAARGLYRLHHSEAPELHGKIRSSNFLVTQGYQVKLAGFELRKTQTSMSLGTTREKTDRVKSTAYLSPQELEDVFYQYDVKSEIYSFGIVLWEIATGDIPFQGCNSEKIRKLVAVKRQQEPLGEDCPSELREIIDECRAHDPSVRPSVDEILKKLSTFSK

[3] = molecular target: T2, EphB6 (Ephrin type-B receptor 6) (Homo sapiens, UniProt O15197); assay: thermal-shift assay
T2 sequence (O15197 670-919 limits assumed): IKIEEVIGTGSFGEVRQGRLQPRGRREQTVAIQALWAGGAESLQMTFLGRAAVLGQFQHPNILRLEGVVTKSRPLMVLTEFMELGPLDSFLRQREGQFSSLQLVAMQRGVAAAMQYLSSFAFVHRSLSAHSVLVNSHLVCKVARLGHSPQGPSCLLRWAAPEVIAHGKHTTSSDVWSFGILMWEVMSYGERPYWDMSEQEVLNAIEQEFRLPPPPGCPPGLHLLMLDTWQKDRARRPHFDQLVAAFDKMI

TYK2(JH2) = TYK2(JH2) (Homo sapiens, UniProt P29597); assay: thermal-shift assay
TYK2(JH2), sequence (P29597 575-869): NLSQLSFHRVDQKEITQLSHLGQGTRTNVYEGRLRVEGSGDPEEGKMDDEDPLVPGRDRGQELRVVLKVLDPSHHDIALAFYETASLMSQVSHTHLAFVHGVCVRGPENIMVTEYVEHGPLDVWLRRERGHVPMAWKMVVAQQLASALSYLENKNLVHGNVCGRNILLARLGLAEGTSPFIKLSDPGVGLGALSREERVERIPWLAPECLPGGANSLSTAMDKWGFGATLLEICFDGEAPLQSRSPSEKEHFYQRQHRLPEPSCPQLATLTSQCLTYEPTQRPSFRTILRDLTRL

ULK4 (unc-51 like kinase 4), sequence (Q96C45 1-288 limits assumed): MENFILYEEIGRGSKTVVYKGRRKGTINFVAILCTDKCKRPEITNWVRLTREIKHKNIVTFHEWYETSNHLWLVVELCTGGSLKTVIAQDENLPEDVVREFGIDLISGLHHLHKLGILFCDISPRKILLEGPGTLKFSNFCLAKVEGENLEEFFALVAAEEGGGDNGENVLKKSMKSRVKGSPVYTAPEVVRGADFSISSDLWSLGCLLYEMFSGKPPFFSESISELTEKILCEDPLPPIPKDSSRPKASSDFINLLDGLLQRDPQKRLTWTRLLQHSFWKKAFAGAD

Compound | thermal-shift assay (0.2 mM nucleotide) [1] | Kd [2] [µM] | thermal-shift assay (0.2 mM nucleotide) [3] | thermal-shift assay (40 μM ligand, ΔTm ≥3 °C) (TYK2(JH2))
Nc1ncnc2c1ncn2[C@@H]1O[C@H](COP(=O)(O)OP(=O)(O)OP(=O)(O)O)[C@@H](O)[C@H]1O [ATP] | we observed that ATP binding was still accomplished by EphB6 and ULK4 (Figures 3C and 3E) | ~15 | we observed that ATP binding was still accomplished by EphB6 and ULK4 (Figures 3C and 3E) | –
NCc1ccc(Nc2ncc(F)c(Nc3ccccc3)n2)cc1 [DAP, N′2′-(4-aminomethyl-phenyl)-5-fluoro-N′4′-phenyl-pyrimidine-2,4-diamine] | – | – | – | consistent with the binding to the small-molecule kinase inhibitors DAP and VI16832 observed in the present study (Figure 2E)
